Results as given in PMC6934184, “Selective DNA-PKcs inhibition extends the therapeutic index of localized radiotherapy and chemotherapy” (The Journal of Clinical Investigation, 2019).

Biological target: T1, TGFBR2 (Homo sapiens, UniProt P37173)
T1 construct: purchased Thermo Fisher Scientific (Life Technologies) SelectScreen
Test: SelectScreen LanthaScreen
Format: binding
Conditions: read-out: % displacement
Method in brief: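 SelectScreen broad panel; activity (Z'LYTE, Adapta) plus binding formats. ATP: Km app for CSF1R Z'LYTE; 10 for CAMK1 Adapta. Readout = % per kinase.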

T1 sequence (P37173 23-567): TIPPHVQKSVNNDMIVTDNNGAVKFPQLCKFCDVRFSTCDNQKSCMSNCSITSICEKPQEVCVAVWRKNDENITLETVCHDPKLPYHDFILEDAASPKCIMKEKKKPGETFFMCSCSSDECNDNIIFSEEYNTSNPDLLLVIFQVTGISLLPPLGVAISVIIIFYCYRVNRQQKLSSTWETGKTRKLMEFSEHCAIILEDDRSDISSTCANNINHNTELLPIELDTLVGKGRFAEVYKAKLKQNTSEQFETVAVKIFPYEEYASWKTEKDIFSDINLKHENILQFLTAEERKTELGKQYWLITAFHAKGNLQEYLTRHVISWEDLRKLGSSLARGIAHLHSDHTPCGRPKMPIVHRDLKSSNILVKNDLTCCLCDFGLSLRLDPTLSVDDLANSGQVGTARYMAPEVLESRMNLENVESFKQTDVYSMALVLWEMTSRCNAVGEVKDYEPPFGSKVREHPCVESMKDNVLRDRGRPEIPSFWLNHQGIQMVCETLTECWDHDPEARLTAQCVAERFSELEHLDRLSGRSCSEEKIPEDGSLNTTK

CN(C(=O)CN1CCOCC1)c1ccc2sc3c(-c4cccc5c(=O)cc(N6CC7CCC(C6)O7)oc45)cccc3c2c1 [NU5455]
inhibition at 1 µM: -0.1%
